In one data set the test system is Hela cancer cell line. The experiment in a line: MTT cytotoxicity assay, cervical cancer Hela. Format: cell-based. Conditions: Homo sapiens, mean ± SD of three experiments. As to the method: (§1) The cytotoxicity of compounds 9a–h and 14a–h against three cell lines, namely, cervical cancer Hela, breast cancer MCF7, and colon HCT-116, compared with doxorubicin as a reference compound was performed using MTT assay. The cytotoxic concentration (IC50 in µM) is illustrated in Table 1.
(§2) Standard MTT colorimetric assay was applied to test the IC50 of compounds 9a–h and 14a–h against three cell lines, namely, cervical cancer Hela, breast cancer MCF7, and colon HCT-116, compared with doxorubicin as a reference compound with the typical reported methodology of MTT colorimetric assay.
(Tetrazolium dyes change colour on reduction, which living cells bring about.)

Another data set has as its system MCF7 cancer cell line. As to the kind of experiment: MTT cytotoxicity assay, breast cancer MCF7. Format: cell-based. Conditions: Homo sapiens, mean ± SD of three experiments. As to the method: as §1, §2
The next data set has as its system HCT-116 cancer cell line. As to the kind of experiment: MTT cytotoxicity assay, colon HCT-116. Format: cell-based. Conditions: Homo sapiens, mean ± SD of three experiments, read-out: IC50 HCT116. As to the method:
as §1, §2

The nature of data set [1]: MTT cytotoxicity on normal cell line WI-38. Format: cell-based. Conditions: human, WI-38 normal cells, MTT assay, mean ± SD of three experiments, read-out: In Vitro Cytotoxicity on WI-38 (IC50).
Data set [2] has as its system MCF7 cells. As to the kind of experiment: Cell cycle analysis (PI flow cytometry), MCF7. Format: cell-based. As to the method:
(§3) Cell cycle arrest of cervical cancer cells Hela, breast cancer cells MCF7, and colon cancer cells HCT-116 were assessed for compounds 9a and 14g at their IC50.
On the technique in general: A flow cytometer gives signals particle by particle.

Data set [3] has as its system HCT-116 cells. As to the kind of experiment: Cell cycle analysis (PI flow cytometry), HCT-116. Format: cell-based. Particulars: HCT-116, compound at its IC50. The protocol:
as §3

Data set [4] relates to MCF7 cells. The experiment in a line: Annexin V/PI apoptosis assay, MCF7. Particulars: MCF7, IC50 concentration, 24 h. Format: cell-based.
Data set [5] concerns HCT-116 cells. As to the kind of experiment: Annexin V/PI apoptosis assay, HCT-116. Format: cell-based. Conditions: HCT-116, IC50 concentration, 24 h.
A further data set has as its target T1, CDK2 (Homo sapiens, UniProt P24941).
T1 construct: purchased BPS Bioscience
As to the kind of experiment: In vitro CDK2 enzyme inhibition assay (BPS Bioscience kit, chemiluminescence). Format: biochemical. As to the method:
(§4) The CDK in vitro inhibitory activity of 9a–h and 14a–h toward CDK2 and CDK9 was performed using CDK Assay Kit (BPS Bioscience, USA) at different dilutions of 30, 10, 3, 1, 0.3, 0.1, 0.03, and 0.01 µM, measuring the chemiluminescence using BioTek™ Synergy2 Microplate Reader (BioTek, Santa Clara, CA, USA).

In a further data set the target is T2, CDK9 (Homo sapiens, UniProt P50750).
T2 construct: purchased BPS Bioscience
The experiment in a line: In vitro CDK9 enzyme inhibition assay (BPS Bioscience kit, chemiluminescence). Format: biochemical. As to the method:
as §4

Data set [6] relates to Hela cells. As to the kind of experiment: Cell cycle analysis (PI flow cytometry), Hela. Format: cell-based. As to the method: as §3
Data set [7] has as its system Hela cells. As to the kind of experiment: Annexin V/PI apoptosis assay, Hela. Format: cell-based. Particulars: IC50 concentration, 24 h. As to the method: An apoptotic assay using Annexin V/PI analysis for compounds 9a and 14g is evaluated. Compound 9a induced a significant level of early and late apoptosis (total = 42.19) in the Hela cell line when compared with the control cells (Table 3, Figure 5 and Figure 6).

The values that follow come from article PMC10490123, “Synthesis and In Vitro Anticancer Activity of Novel 4-Aryl-3-(4-methoxyphenyl)-1-phenyl-1H-pyrazolo[3,4-b]pyridines Arrest Cell Cycle and Induce Cell Apoptosis by Inhibiting CDK2 and/or CDK9” (Molecules, 2023).

“Also recorded” adds a separate entry of the source.

T2 sequence (P50750 whole entry): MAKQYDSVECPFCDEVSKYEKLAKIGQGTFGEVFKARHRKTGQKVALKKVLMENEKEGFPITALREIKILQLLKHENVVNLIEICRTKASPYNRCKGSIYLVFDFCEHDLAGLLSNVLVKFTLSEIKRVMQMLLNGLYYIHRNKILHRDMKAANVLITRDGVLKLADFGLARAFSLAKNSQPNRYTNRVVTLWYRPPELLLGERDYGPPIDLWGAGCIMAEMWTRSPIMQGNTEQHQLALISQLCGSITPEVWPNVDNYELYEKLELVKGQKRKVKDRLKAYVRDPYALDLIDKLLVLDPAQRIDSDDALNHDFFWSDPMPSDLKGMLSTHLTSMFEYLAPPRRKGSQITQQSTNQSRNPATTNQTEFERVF
T2 sequence (O60563 whole entry partner): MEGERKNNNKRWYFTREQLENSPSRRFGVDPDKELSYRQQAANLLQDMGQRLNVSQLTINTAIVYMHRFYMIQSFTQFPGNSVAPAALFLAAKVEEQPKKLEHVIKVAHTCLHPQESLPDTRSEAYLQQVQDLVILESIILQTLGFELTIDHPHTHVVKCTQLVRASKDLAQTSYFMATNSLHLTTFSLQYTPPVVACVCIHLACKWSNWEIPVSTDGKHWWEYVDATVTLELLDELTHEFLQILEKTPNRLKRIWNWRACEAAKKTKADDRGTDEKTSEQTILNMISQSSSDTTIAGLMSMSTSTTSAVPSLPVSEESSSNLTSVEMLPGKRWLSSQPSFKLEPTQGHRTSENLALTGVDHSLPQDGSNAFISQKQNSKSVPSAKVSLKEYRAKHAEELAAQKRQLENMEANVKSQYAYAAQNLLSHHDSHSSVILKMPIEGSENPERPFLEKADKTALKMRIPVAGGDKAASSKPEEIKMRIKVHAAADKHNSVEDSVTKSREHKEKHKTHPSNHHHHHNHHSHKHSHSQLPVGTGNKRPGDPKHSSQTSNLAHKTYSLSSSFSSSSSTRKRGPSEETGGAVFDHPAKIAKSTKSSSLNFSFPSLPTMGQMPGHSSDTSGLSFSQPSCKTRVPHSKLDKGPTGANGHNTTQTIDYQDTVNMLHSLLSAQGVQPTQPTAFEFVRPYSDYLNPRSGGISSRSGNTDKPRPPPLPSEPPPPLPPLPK

In turn, `COc1ccc(-c2nn(-c3ccccc3)c3nc(-c4ccccc4)c(C#N)c(-c4ccc(O)cc4)c23)cc1` [Compound 14g, 4-(4-Hydroxyphenyl)-3-(4-methoxyphenyl)-1,6-diphenyl-1H-pyrazolo[3,4-b]pyridine-5-carbonitrile] showed a melting point of 295 to 297 °C. Also, 12.7 ± 1.53 µM corresponded to half-maximal inhibition in the data set with Hela cancer cell line (IC50). This compound also showed an IC50 in the data set on MCF7 cancer cell line of 4.66 ± 0.38 µM. Moreover, in the data set on HCT-116 cancer cell line, the IC50 was determined as 1.98 ± 0.17 µM. The IC50 in data set [1] was found to be 21.8 ± 2.96 µM. For the same compound, the “Cell cycle Comment” value in the data set on MCF7 cells [2] (MCF7, compound at its IC50) is on record as “arresting cell cycle for MCF7 at G2/M phase; also recorded: cell growth arrest@ G2/M”. The “DNA Content %G2/M” value with MCF7 cells [2] (MCF7, compound at its IC50, control 14.86) amounted to 24.94%. For the same compound, the “DNA Content %S” value with MCF7 cells [2] (MCF7, compound at its IC50, control 39.02) was 33.81%. Besides, in the data set on MCF7 cells [2] (MCF7, compound at its IC50, control 46.12), the “DNA Content %G0-G1” value is reported as 41.25%. Further, the “DNA accumulation at G2/M phase relative to control” value with MCF7 cells [2] (MCF7, control 14.86%) came out at 1.68 fold. Moreover, the “Cell cycle Comment” value with HCT-116 cells [3] is recorded as “arresting cell cycle at S phase; also recorded: cell growth arrest@ S”. In the data set on HCT-116 cells [3] (control 17.64), the “DNA Content %G2/M” value came to 13.24%. The “DNA Content %S” value in the data set with HCT-116 cells [3] (control 26.49) was 34.82%. Moreover, the “DNA Content %G0-G1” value with HCT-116 cells [3] (control 55.87) turned out to be 51.94%. In addition, the “Apoptosis Late” value in the data set on MCF7 cells [4] (control 0.27) amounted to 7.55%. Also, the “Apoptosis Early” value with MCF7 cells [4] (control 0.44) is 13.07%. Also, the Necrosis with MCF7 cells [4] (control 0.78) was 2.27%. Also, the “Apoptosis Total” value in the data set with MCF7 cells [4] (total equals early + late + necrosis, control 1.49) stood at 22.89%. Also, the “Apoptosis Late” value with HCT-116 cells [5] (control 0.19) is 6.95%. Moreover, the “Apoptosis Early” value in the data set on HCT-116 cells [5] (control 0.63) came to 16.01%. In the data set with HCT-116 cells [5] (control 1.69), this compound showed a Necrosis of 3.75%. Also, the “Apoptosis Total” value in the data set with HCT-116 cells [5] (total equals early + late + necrosis, control 2.51) came out at 26.71%. Also, at CDK2, the IC50 came to 0.46 ± 0.024 µM. For the same compound, the IC50 on CDK9 worked out at 0.801 ± 0.041 µM.
For `COc1ccc(-c2nn(-c3ccccc3)c3nccc(-c4ccccc4)c23)cc1` [Compound 9a, 3-(4-Methoxyphenyl)-1,4-diphenyl-1H-pyrazolo[3,4-b]pyridine], the melting point fell in the range of 161 to 163 °C. The IC50 with Hela cancer cell line was found to be 2.59 ± 0.16 µM. The compound also displayed an IC50 in the data set on MCF7 cancer cell line of 6.39 ± 0.46 µM. Also, in the data set with HCT-116 cancer cell line, the IC50 came out at 15.3 ± 1.46 µM. In addition, the IC50 in [1] turned out to be 26.4 ± 3.23 µM. Besides, the “Cell cycle Comment” value in the data set on Hela cells [6] (compound at its IC50) is given as “cell cycle arrest at the S phase; also recorded: cell growth arrest@ S”. Moreover, the “DNA Content %G2/M” value in the data set on Hela cells [6] (compound at its IC50, control 14.5) amounted to 11.36%. The “DNA Content %S” value in the data set with Hela cells [6] (compound at its IC50, control 24.11) is 29.54%. Further, the “DNA Content %G0-G1” value with Hela cells [6] (compound at its IC50, control 61.39) stood at 59.1%. Further, the “cell accumulation at S phase relative to control” value in the data set on Hela cells [6] (control 24.11%) was 1.23 fold. The “Apoptosis Late” value in the data set on Hela cells [7] (control 0.12) is 12.82%. Moreover, in the data set on Hela cells [7] (control 0.49), the “Apoptosis Early” value was 23.21%. The same compound gave a Necrosis in the data set with Hela cells [7] (control 1.72) of 6.16%. In addition, the “Apoptosis Total” value with Hela cells [7] (total equals early + late + necrosis, control 2.33, % printed in Figure 6 only) worked out at 42.19%. Besides, the IC50 at CDK2 worked out at 1.63 ± 0.009 µM. The IC50 on CDK9 turned out to be 0.262 ± 0.013 µM.

For orientation: IC50 means the concentration at which inhibition is half-maximal. By melting point is commonly meant the temperature of the solid-liquid transition.
